Measured values from patent USRE50096E1, “Nanoemulsion compositions of taxoid drugs, and methods for the use thereof to target cancer cells and cancer stem cells” (TargaGenix, Inc., priority 2016, dated 2024).
Like-named read-outs stand apart in the source and are kept apart here.

Tests used:
[1] = tested on: human PANC-1 pancreatic tumor xenograft; assay: PANC-1 pancreatic tumor xenograft in SCID mice; assay type: in vivo, RPCI SCID mice; conditions: for complete remissions: mouse, in vivo
From the text: This experiment compared a q7dx3 with a q3dx3 schedule for PX and DHA-SBT-1214 using a human PANC-1 pancreatic tumor xenograft in RPCI SCID mice.

[2] = tested on: human CFPAC-1 ductal pancreatic adenocarcinoma xenograft; assay: CFPAC-1 pancreatic adenocarcinoma xenograft in SCID mice; conditions: for tumor growth delay as compared to vehicles: mouse, in vivo
[3] = tested on: paclitaxel-resistant, Pgp(+) DLD1 human colon tumor xenograft; assay: DLD1 human colon tumor xenograft in SCID mice
[4] = tested on: H460 human non-small cell lung tumor xenograft; assay: H460 non-small cell lung tumor xenograft in SCID mice; conditions: for tumor growth delay: at (about) MTD
[5] = tested on: H460 human non-small cell lung tumor xenograft; conditions: mouse, in vivo
CD133+ PPT2 cells = assay: Stemness gene expression in PPT2 cells (PCR array, Western blot); assay type: cell-based, human
Method: Experiments were carried out with a patient-derived cancer stem cell line for prostate cancer, PPT2 (Botchkina 2013, Rowehl 2014). The cell line PPT2 was generated from a patient-derived prostate cancer tumor. […] The PPT2 cell line was serially propagated as NOD/SCID mice tumor xenografts, floating 3D spheroids and type I collagen-adherent cultures. According to the ATCC report (ID number 002872), the PPT2 cells were unique human cells not contaminated with any known established cell lines. Although phenotype of the CSC-enriched cultures was dynamic due to the dual nature of the CSCs (i.e., ability to self-renew and to generate committed progenitors), the PPT2 cells retained a relatively stable phenotype, even up to 8 weeks after MACS-CD133^+ cell sorting and culturing on type I collagen coated surfaces in serum-free medium. […] Both nuclear and cytoplasmic fractions of the PPT2 cells expressed c-Myc, whereas other pluripotency markers (Oct-4 and Sox-2) were detected only in nuclear fraction. […]
To characterize possible drug induced alterations in stemness gene expression, CD133^+ PPT2 cells were analyzed before and after treatment with a combination of SBT-1214 and CMC 2.24, a chemically-modified curcumin. […]

[6] = tested on: drug resistant (Pgp+) colon tumor xenografts; conditions: mouse, in vivo; cited from earlier work
tubulin = conditions: cited from earlier work
HT29 spheroids = assay: Colon cancer stem cell 3D spheroids, HT29; assay type: cell-based, human
Method: (§1) In another example, stem-cell enriched populations of colon cancer cells were selected from three invasive colon cancer cell lines, HCT116, HT29, and DLD-1. The populations were grown as 3D multicellular spheroids.
HT29: ACAN, ALPI, BMP3, CD3D, CD4, CD8A, CD8B, CDH2, COL2A1, COL9A1, DHH, DLL1, DLL3, DTX1, FGF1, FGF3, FZD1, GDF2, IGF1, MME, MYOD, NCAM1, NEUROG2, S100B, SOX2, and TERT;

[7] = tested on: drug resistant cancer cells, expressing MDR phenotypes; conditions: cited from earlier work
HCT116 spheroids = assay: Colon cancer stem cell 3D spheroids, HCT116; assay type: cell-based, human
Method: as §1
HCT116: SOX1, RPL13A, BMP1, BMP3, NEUROG2, GJB1, GJA1, ASCL2, CTNNA1, GDF2, ALPI, S100B, CD8B1, ACTB, CCND1, FGF1, PARD6A, DVL1, GDF3, ISL1, CD3D, MME, FGFR1, RB1, AIN1, ALDH1A1, CD8A, PPARD, FZD1, NUMB and ABCG2;

DLD-1 spheroids = assay: Colon cancer stem cell 3D spheroids, DLD-1; assay type: cell-based, human
Method: as §1
DLD-1: CD4, CDH2, COL1A1, DLL1, DTX1, IGF1, FGF3, FZD1, JAG1, KRT15, MSX1, NCAM1 and NOTCH1 (Botchkina, et al., 2010).

[8] = 80 mg/kg dose on days 5, 8, and 11

CC/C=C\C/C=C\C/C=C\C/C=C\C/C=C\C/C=C\CCC(=O)O[C@@H](C(=O)O[C@H]1C[C@@]2(O)[C@@H](OC(=O)c3ccccc3)[C@@H]3[C@]4(OC(C)=O)CO[C@@H]4C[C@H](O)[C@@]3(C)C(=O)[C@H](OC(=O)C3CC3)C(=C1C)C2(C)C)[C@H](C=C(C)C)NC(=O)OC(C)(C)C [DHA-SBT-1214]
maximum tolerated dose (MTD) ([1]; 80 mg/kg x 3 inj): 240 mg/kg total dosage
toxic death ([1]; 300 mg/kg total dose): one toxic death
tumor growth delay ([1]; both schedules, q7dx3 and q3dx3): > 90 days
complete remissions [1]: achieved complete remissions
weight loss ([2]; 240 mg/kg or 300 mg/kg total dose): negligible
complete regression of the DLD-1 tumor [3, 8]: 5 of 5
tumor growth delay [3, 8]: > 187 days
tumor growth delay [4]: 55 days
MTD ([4]; mouse, in vivo): ~240 mg/kg total dose
tolerability ([4]; mouse, in vivo): clearly better tolerated than SBT-1214

CC/C=C\C/C=C\C/C=C\C/C=C\C/C=C\C/C=C/CCC(=O)O[C@@H](C(=O)O[C@H]1C[C@@]2(O)[C@@H](OC(=O)c3ccccc3)C3[C@](C)(C(=O)[C@H](OC(C)=O)C(=C1C)C2(C)C)[C@@H](O)C[C@H]1OC[C@@]31OC(C)=O)[C@@H](NC(=O)c1ccccc1)c1ccccc1 (stereo partly shown) [DHA-paclitaxel, reference compound]
MTD [5]: 240 mg/kg total dose
tumor growth delay as compared to vehicles [2]: only minor tumor growth delay
tumor growth delay [4]: 3 days

CC(=O)O[C@@]12CO[C@@H]1C[C@H](O)[C@@]1(C)C(=O)[C@H](OC(=O)C3CC3)C3=C(C)[C@@H](OC(=O)[C@H](O)[C@H](C=C(C)C)NC(=O)OC(C)(C)C)C[C@@](O)([C@@H](OC(=O)c4ccccc4)[C@H]21)C3(C)C [SBT-1214]
expression of p21 and p53 (CD133+ PPT2 cells): induced expression
c-Myc and Sox2 in nuclear extracts (Western blot) (CD133+ PPT2 cells; CD133+ and bulk PPT2 cells): moderate down-regulation
long-term regression and tumor growth delay [6]: 167 days
tumor growth delay [6]: > 187 days
tumor regression [6]: complete regression in all surviving mice
time to polymerize tubulin (tubulin): a matter of minutes
weight loss ([2]; until day 20, 120 mg/kg total dose): < 4%
growth of the secondary spheroids (HT29 spheroids; 100 nM for 48 h): marked suppression
cytotoxicity in spheroids (HT29 spheroids; 3D multicellular spheroids): effectively induced cytotoxicity
stemness-associated genes (HT29 spheroids; gene list): downregulated
potency relative to paclitaxel [7]: 2-3 orders of magnitude
growth of the secondary spheroids (HCT116 spheroids; 100 nM for 48 h): marked suppression
cytotoxicity in spheroids (HCT116 spheroids; 3D multicellular spheroids): effectively induced cytotoxicity
stemness-associated genes (HCT116 spheroids; gene list): downregulated
growth of the secondary spheroids (DLD-1 spheroids; 100 nM for 48 h): marked suppression
cytotoxicity in spheroids (DLD-1 spheroids; 3D multicellular spheroids): effectively induced cytotoxicity
stemness-associated genes (DLD-1 spheroids; gene list): downregulated
tumor growth delay [4]: 34 days
MTD ([4]; mouse, in vivo): ~120 mg/kg total dose

CC(=O)O[C@H]1C(=O)[C@@]2(C)[C@H]([C@H](OC(=O)c3ccccc3)[C@]3(O)C[C@H](OC(=O)[C@H](O)[C@@H](NC(=O)c4ccccc4)c4ccccc4)C(C)=C1C3(C)C)[C@]1(OC(C)=O)CO[C@@H]1C[C@@H]2O [paclitaxel, reference compound]
complete remissions [1]: no complete remissions
tumor growth delay ([1]; q3dx3 schedule): 13 days
tumor growth delay ([1]; q7dx3 schedule): 18 days
time to polymerize tubulin (tubulin): hours
tumor growth delay as compared to vehicles [2]: only minor tumor growth delay
efficacy against tumor xenograft ([3]; s.c. xenograft): totally ineffective
tumor growth delay [4]: 8 days
MTD ([4]; mouse, in vivo): 75 mg/kg total dose
